Reference: the supplement of paper PMC10307832

Key:
Experiment in all cases: relative viability (nuclei count vs DMSO), 5 days (fraction); higher = more cells survive
kb NB 142-70 = compound: C1CSC2=C(C(=O)N1)SC3=C2C=C(C=C3)O [kb NB 142-70]
Outline: (§1)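 Viability was read as treated-well nuclei divided by vehicle-well nuclei, using the median across plates. Lung cancer cell lines in 1536-well plates were kept overnight at 37 °C, pinned with five √10-spaced library-drug doses, and after 5 days were Hoechst-stained, imaged at 4× and counted in MetaXpress. Plates passed only with control CV below 25% and at least one doubling.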

[1] = compound: NCC(=O)Nc1ccc(-n2nc(C(F)(F)F)cc2-c2ccc3c(ccc4ccccc43)c2)cc1
Outline: as §1

kb NB 142-70 + Alpelisib = compound: C1CSC2=C(C(=O)N1)SC3=C2C=C(C=C3)O [kb NB 142-70] + Cc1nc(NC(=O)N2CCC[C@H]2C(N)=O)sc1-c1ccnc(C(C)(C)C(F)(F)F)c1 [Alpelisib] (partner 2 µM)
Outline: (§2)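 One day after seeding in 1536-well plates, lung cancer cell lines were dosed by pin tool. Dosing was either single-drug or a fixed anchor-drug dose plus five library-drug doses (not always all listed) in √10 steps. After 5 days, nuclei were stained in one fix-and-stain step and counted on 4× images, and relative viability is the nuclei count of treated wells over that of vehicle wells, given as the median of duplicate plates.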

[2] = compound: C1CSC2=C(C(=O)N1)SC3=C2C=C(C=C3)O [kb NB 142-70] + Nc1nc2[nH]cc(CCc3ccc(C(=O)N[C@@H](CCC(=O)O)C(=O)O)cc3)c2c(=O)[nH]1 [Pemetrexed] (partner 0.2 µM)
Outline: as §2

[3] = compound: NCC(=O)Nc1ccc(-n2nc(C(F)(F)F)cc2-c2ccc3c(ccc4ccccc43)c2)cc1 + CC(C)C[C@H](NC(=O)[C@H](Cc1ccccc1)NC(=O)c1cnccn1)B(O)O [Bortezomib] (partner 0.002 µM)
Outline: as §2

Cell Line | relative viability (kb NB 142-70; 0.1 µM) | relative viability (kb NB 142-70; 1 µM) | relative viability (kb NB 142-70; 3.162 µM) | relative viability ([1]; 0.02 µM) | relative viability ([1]; 0.06325 µM) | relative viability ([1]; 0.2 µM) | relative viability ([1]; 0.6325 µM) | relative viability ([1]; 2 µM) | relative viability (kb NB 142-70 + Alpelisib; first compound 0.1 µM) | relative viability (kb NB 142-70 + Alpelisib; first compound 1 µM) | relative viability (kb NB 142-70 + Alpelisib; first compound 3.162 µM) | relative viability ([2]; first compound 0.1 µM) | relative viability ([2]; first compound 1 µM) | relative viability ([2]; first compound 3.162 µM) | relative viability ([3]; first compound 0.02 µM) | relative viability ([3]; first compound 0.06325 µM) | relative viability ([3]; first compound 0.2 µM) | relative viability ([3]; first compound 0.6325 µM) | relative viability ([3]; first compound 2 µM)
NCI-H2126 | 0.985 | 0.974 | 0.989 | 0.981 | 1.04 | 1.04 | 0.993 | 0.997 | 0.748 | 0.763 | 0.758 | 0.666 | 0.702 | 0.762 | 1.12 | 1.15 | 1.15 | 1.13 | 1.14
EMC-BAC-2 | 1.08 | 0.972 | 0.632 | 0.918 | 1.01 | 1.05 | 0.931 | 1 | 0.74 | 0.754 | 0.572 | 0.438 | 0.483 | 0.451 | 1.02 | 1.19 | 1.1 | 1.07 | 1.1
NCI-H1993 | 1.03 | 0.857 | 0.716 | 0.934 | 1.1 | 1.05 | 1 | 1.04 | 0.761 | 0.654 | 0.555 | 0.562 | 0.597 | 0.554 | 1.1 | 1.28 | 1.08 | 1.15 | 1.21
NCI-H520 | 0.985 | 0.884 | 0.544 | 1.01 | 1.04 | 1.1 | 0.933 | 1.05 | 0.728 | 0.961 | 0.513 | 0.765 | 0.667 | 0.375 | 0.646 | 0.568 | 1.05 | 0.671 | 0.789
NCI-H647 | 1.01 | 1.03 | 0.99 | 0.934 | 1.03 | 1.07 | 0.943 | 0.897 | 1.1 | 1.43 | 0.698 | 0.186 | 0.192 | 0.178 | 1.14 | 1.18 | 1.09 | 1.04 | 0.99
NCI-H1792 | 0.928 | 0.937 | 0.915 | 1.05 | 0.812 | 0.875 | 0.95 | 0.911 | 0.778 | 0.732 | 0.891 | 0.862 | 0.828 | 1.13 | 1.02 | 0.974 | 0.932 | 0.946 | 0.966
SK-LU-1 | 0.994 | 0.982 | 0.664 | 0.949 | 1.1 | 1.2 | 1.01 | 1.07 | 0.961 | 0.873 | 0.307 | 0.958 | 0.954 | 0.412 | 1.07 | 1.22 | 1.23 | 1.07 | 1.31
NCI-H2009 | 1.06 | 1.07 | 0.788 | 0.952 | 1.02 | 1.07 | 1 | 1.05 | 1.04 | 1.2 | 0.72 | 1.05 | 1.09 | 0.977 | 0.911 | 1.05 | 0.825 | 0.963 | 1.08
LOU-NH91 | 0.959 | 0.974 | 0.63 | 0.963 | 1 | 0.951 | 0.965 | 1.06 | 0.705 | 0.675 | 0.492 | 0.432 | 0.462 | 0.386 | 0.485 | 0.523 | 0.485 | 0.511 | 0.484
NCI-H2405 | 0.985 | 0.995 | 0.7 | 1 | 1.02 | 1.09 | 0.961 | 1.06 | 0.743 | 0.802 | 0.723 | 1.11 | 0.995 | 0.523 | 0.924 | 1.04 | 0.999 | 0.961 | 0.987
LCLC-97TM1 | 1.03 | 0.956 | 0.489 | 0.995 | 1.1 | 1 | 1.01 | 0.958 | 0.236 | 0.245 | 0.181 | 0.174 | 0.186 | 0.182 | 0.814 | 0.75 | 0.35 | 0.538 | 0.539
NCI-H596 | 1.02 | 1.1 | 0.981 | 1.12 | 1.11 | 1.06 | 0.992 | 0.945 | 0.454 | 0.483 | 0.347 | 0.484 | 0.507 | 0.461 | 1.27 | 1.1 | 0.883 | 1.96 | 1.05
H3255 | 1.01 | 0.954 | 1.02 | 0.951 | 1.01 | 0.974 | 0.866 | 1.05 | 0.621 | 0.754 | 0.768 | 0.572 | 0.568 | 0.58 | 0.87 | 1.12 | 0.846 | 0.791 | 0.876
NCI-H1437 | 0.986 | 1 | 0.975 | 0.975 | 1.05 | 0.957 | 1.01 | 0.946 | 1.01 | 0.999 | 0.875 | 0.297 | 0.359 | 0.349 | 0.531 | 0.422 | 0.536 | 0.487 | 0.499
LU99A | 0.94 | 0.816 | 0.637 | 0.864 | 0.915 | 0.987 | 0.908 | 0.967 | 0.517 | 0.499 | 0.354 | 0.175 | 0.196 | 0.187 | 1.14 | 1.27 | 1.06 | 1.07 | 1.1
HCC-827 | 1.07 | 1.03 | 0.971 | 1.03 | 1.05 | 0.987 | 1.02 | 1.1 | 0.868 | 0.928 | 0.851 | 0.25 | 0.243 | 0.267 | 1.02 | 1.12 | 1.04 | 1 | 1.15
HCC-366 | 1.01 | 0.976 | 0.927 | 1.01 | 1.07 | 1 | 1.01 | 0.934 | 0.425 | 0.333 | 0.296 | 0.182 | 0.214 | 0.34 | 1.17 | 1.03 | 1.04 | 1.02 | 1.01
BEN | 0.961 | 0.894 | 0.738 | 0.99 | 0.972 | 0.994 | 0.894 | 0.975 | 0.922 | 0.982 | 0.689 | 0.773 | 0.761 | 0.575 | 0.817 | 0.852 | 0.763 | 0.701 | 0.576
NCI-H23 | 1.05 | 0.689 | 0.336 | 0.863 | 1.04 | 0.988 | 0.904 | 0.846 | 0.553 | 0.586 | 0.315 | 0.621 | 0.594 | 0.367 | 0.908 | 1.11 | 1.1 | 1.02 | 1.12
201T | 1.01 | 0.966 | 1.02 | 0.892 | 1.01 | 0.98 | 0.989 | 1.01 | 1.01 | 1.02 | 1 | 0.315 | 0.349 | 0.318 | 1.04 | 1.18 | 1.03 | 1.17 | 1.09
NCI-H460 | 1.01 | 0.99 | 0.979 | 0.974 | 0.995 | 1 | 0.987 | 0.976 | 0.521 | 0.435 | 0.244 | 0.058 | 0.0629 | 0.0654 | 1.21 | 1.11 | 1.07 | 1.03 | 1.07
NCI-H661 | 0.969 | 0.934 | 0.919 | 1.03 | 0.96 | 0.973 | 0.963 | 1.02 | 0.812 | 0.526 | 0.613 | 0.967 | 0.867 | 0.856 | 0.785 | 0.853 | 0.737 | 0.784 | 0.762
HCC-15 | 1.03 | 1 | 0.978 | 1 | 1.06 | 0.963 | 1.03 | 1.02 | 0.908 | 0.787 | 0.626 | 0.227 | 0.238 | 0.227 | 1.07 | 1.06 | 1.06 | 1.01 | 0.996
NCI-H1563 | 1.04 | 1.02 | 1 | 0.992 | 0.954 | 0.997 | 1.02 | 0.968 | 0.963 | 0.967 | 0.932 | 0.864 | 0.961 | 0.774 | 0.77 | 0.962 | 0.69 | 0.925 | 0.928
LCLC-103H | 1.03 | 0.984 | 1.03 | 0.957 | 1.07 | 0.963 | 0.979 | 0.966 | 0.998 | 0.944 | 0.961 | 0.447 | 0.453 | 0.471 | 1.03 | 1 | 1.13 | 1.07 | 1.1
NCI-H441 | 0.975 | 0.967 | 0.637 | 0.977 | 1.04 | 1.28 | 0.947 | 0.956 | 0.92 | 0.62 | 0.484 | 0.269 | 0.248 | 0.196 | 0.931 | 0.481 | 0.308 | 0.409 | 0.361
EPLC-272H | 0.988 | 0.905 | 0.447 | 0.904 | 1.2 | 0.874 | 1.01 | 0.911 | 0.906 | 0.899 | 0.509 | 0.433 | 0.386 | 0.176 | 0.806 | 0.873 | 0.868 | 0.943 | 1.14
